Consider 2 compounds from patent publication US20070123533A1, “New process for preparing an optically pure 2-morpholinol derivative” (SMITHKLINE BEECHAM CORPORATION, priority 2003, published 2007).

Series [1] can be described thus: Racemization of the pure enantiomer in heated solvents, optical purity followed over time. It counts as physicochemical. The note with it: for Final OP (%): about 60-65° C. under reflux, starting OP >99.8%, about 20 g/L. How it is done:
Pure (+)-(2S,3S)-2-(3-chlorophenyl)-3,5,5-trimethyl-2-morpholinol was tested with various solvents in order to optimize the racemization. Specifically, about 2 g of pure enantiomer ((+)(2S,3S)-2-(3-chlorophenyl)-3,5,5-trimethyl-2-morpholinol) were dissolved into 100 ml (total concentration of about 20 g/L) of solvent (see various solvents below) and heated up to about 60-65° C. under stirring (under reflux). The solution was sampled periodically in order to follow the kinetics of racemization.
Table 11 illustrates the Optical Purity of the racemization of the enantiomer in various solvents or solvent mixtures: […]

Series [2] is described as follows: Solubility of the racemate in the chromatography eluent. It counts as physicochemical. To be noted: organic solvent or mixture. An excerpt: The selectivity obtained has a strong influence on process productivity. As illustrated in Example 3 below the addition of isopropanol to the acetonitrile mobile phase increased the selectivity over two-fold. The process productivity is almost proportional to [formula] but other parameters also have to be considered to select the best chromatographic conditions. The process is also influenced by the retention of the compounds, with tests showing the retention to be maximal at 2-3% isopropanol. However the solubility of the racemate is shown to increase with increasing isopropanol content allowing a more concentrated feed to be injected. […] Also from the standpoint of process operation robustness, since MCC involves continuous operation it is important to avoid any precipitation effects which could halt the system. Using a mobile phase containing isopropanol reduces the likelihood of precipitation occurring and is advantageous over a MCC system operating purely in 100% acetonitrile in which racemate feed and isolated enantiomers are less soluble. […]

The structures appear in SMILES notation. ≈ marks a conversion by molar mass, not a printed value.

Turning to `C[C@@H]1NC(C)(C)CO[C@@]1(O)c1cccc(Cl)c1` [(+)-(2S,3S)-2-(3-chlorophenyl)-3,5,5-trimethyl-2-morpholinol], the “Final OP (%)” value in series [1] (Acetonitrile/IPA (95/5), 20 hours) is 92.8%; in series [1] (Isopropanol, 20 hours), 84.8%; in series [1] (Methanol, 2 hours) it was 95.3%; in series [1] (Methanol/HCl, 2 hours), 97.4%; in series [1] (Water/HCl, 2 hours) it was above 99.8%. Moreover, the “racemization (in words)” value in series [1] (acidic aqueous solvent) was “No racemization is observed”. Moreover, the racemization conversion in series [1] (methanol, after 2 hours) came to 10%; in series [1] (pure isopropanol, after 20 hours) it was 30%.

`C[C@H]1NC(C)(C)CO[C@]1(O)c1cccc(Cl)c1` (racemic) [racemate, (+/−)-(2R*, 3R*)-2-(3-chlorophenyl)-3,5,5-trimethyl-2-morpholinol]: the solubility in series [2] (in acetonitrile/isopropanol 95/5 mixture) was determined as 30 mg/mL (≈ 117 mM); in series [2] (in pure acetonitrile), 22.5 mg/mL (≈ 88 mM).

A word on the solubility: it is the concentration that dissolves in the medium under given conditions.
